Measured values taken from PubChem BioAssay (NCI).
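These data come from cells grown in 96-well plates and exposed to compound for 48 hours at five concentrations. GI50 marks 50% less growth. At the TGI there is no net growth.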

Tests used:
Assay in all cases: DTP human tumour cell line panel, 48 h
LOX IMVI melanoma = tested on: LOX IMVI melanoma
COLO 205 colon = tested on: COLO 205 colon
UO-31 renal = tested on: UO-31 renal
MOLT-4 leukemia = tested on: MOLT-4 leukemia
NCI-H226 lung = tested on: NCI-H226 lung
ACHN renal = tested on: ACHN renal
UACC-62 melanoma = tested on: UACC-62 melanoma
CAKI-1 renal = tested on: CAKI-1 renal
SK-MEL-5 melanoma = tested on: SK-MEL-5 melanoma
SK-OV-3 ovarian = tested on: SK-OV-3 ovarian

SMILES	TGI (LOX IMVI melanoma) [µM]	TGI (COLO 205 colon) [µM]	TGI (UO-31 renal) [µM]	TGI (MOLT-4 leukemia) [µM]	TGI (NCI-H226 lung) [µM]	TGI (ACHN renal) [µM]	GI50 (LOX IMVI melanoma) [µM]	GI50 (UACC-62 melanoma) [µM]	TGI (UACC-62 melanoma) [µM]	TGI (CAKI-1 renal) [µM]	GI50 (ACHN renal) [µM]	TGI (SK-MEL-5 melanoma) [µM]	TGI (SK-OV-3 ovarian) [µM]	GI50 (SK-MEL-5 melanoma) [µM]	GI50 (COLO 205 colon) [µM]	GI50 (SK-OV-3 ovarian) [µM]	GI50 (UO-31 renal) [µM]	GI50 (MOLT-4 leukemia) [µM]	GI50 (NCI-H226 lung) [µM]	GI50 (CAKI-1 renal) [µM]
COc1cc(Nc2cnc3ccc(C(F)(F)F)cc3n2)cc(OC)c1OC	23.2	> 100	> 100	> 100	> 100	> 100	–	–	–	–	–	–	–	–	–	–	–	–	–	–
CCCCCCCCCCCC[N+]1(CCCCCCCCCCCC)CCCC(C)C1 (stereo not given)	1.39	–	–	–	–	2.27	0.348	0.244	1.27	1.92	0.984	–	–	–	–	–	–	–	–	–
CC1=N/C(=C\c2ccc(/C=C3/N=C(C)OC3=O)cc2)C(=O)O1	> 100	> 100	> 100	–	–	> 100	–	–	> 100	> 100	–	> 100	> 100	–	–	–	–	–	–	–
O=C(NC1C(=O)NNC1c1cccc([N+](=O)[O-])c1)c1ccccc1 (stereo not given)	> 100	> 100	> 100	> 100	> 100	> 100	–	–	> 100	–	–	> 100	–	–	–	–	–	–	–	–
CCn1cc(C(=O)O)c(=O)c2cc(F)c(N3CCN(S(=O)(=O)c4cccc5ccccc45)CC3)cc21	–	3.91	8.95	> 100	> 100	> 100	–	2.25	7.73	–	2.88	5.17	13.4	2.24	2.02	3.11	2.21	4.46	3.71	–
O=C(NC12CC3CCC1CC(C3)C2)[C@@H]1CCCN1C(=O)OCc1ccccc1 (stereo not given in full)	> 100	> 100	> 100	> 100	> 100	> 100	–	–	> 100	–	–	–	> 100	–	–	–	–	–	–	–
CCN(CC)CCCNc1ccc(C)c2sc3ccccc3c(=O)c12	1.58	0.384	2.07	1.35	–	2.31	0.423	0.205	0.42	3.06	0.869	0.343	4.82	0.187	0.189	1.51	0.514	0.384	–	1.29
COc1cc(CNc2nc3cc(N)cc(N)c3nc2-c2ccccc2)cc(OC)c1	81.7	6.04	> 100	> 100	–	47.3	4.51	5.31	30.7	> 100	9.42	41.7	54.2	13	2.38	15.1	4.05	3.02	–	16
Cc1nc2ccccc2nc1CC(=O)C(=O)Nc1ccc(Cl)cc1Cl	> 100	> 100	> 100	> 100	–	> 100	–	–	> 100	> 100	–	> 100	> 100	–	–	–	–	–	–	–
Cc1c(C(=N)C(C#N)C#N)c(=N)oc2c1ccc1ccccc12	38.2	29.8	> 100	> 100	–	> 100	11.9	13	32.3	> 100	23.1	29.8	63.3	13.3	14.9	21.3	8.23	21.7	–	7.51
O=C(NCCNCCO)c1ccc2c(c1)oc1cc3ccccc3c(=O)n12	40.6	47.3	> 50	> 50	–	> 50	17.4	> 50	> 50	–	19	32.1	> 50	12.6	18.9	> 50	16.6	44.3	–	–
O=[N+]([O-])c1cccc(C2=NN(c3ccccc3)C3c4cc(Br)ccc4OCC23)c1 (stereo not given)	> 100	> 100	> 100	> 100	–	> 100	–	–	–	–	–	> 100	> 100	–	–	–	–	–	–	–
COC(=O)OC1C(O[C@H]2C[C@H]3[C@@H]4CC=C5C[C@@H](O)CC[C@]5(C)[C@H]4CC[C@]3(C)[C@H]2[C@H](C)C(=O)CCC(C)C)OCC(O)C1OC1OCC(O)C(O)C1OC(=O)c1ccc(OC)cc1 (stereo not given in full)	–	0.253	0.0898	0.0178	–	> 27.5	–	0.00621	0.0158	0.447	0.0721	0.279	0.611	0.014	0.034	0.0073	0.017	0.00695	–	0.0191
COc1ccc(OC)c(NCC(=O)n2nc(/C=C\c3ccc(O)c(OC)c3)cc2/C=C\c2ccc(O)c(OC)c2)c1	–	4.27	13.6	9.21	16.1	–	–	1.56	4.72	–	–	4.91	6.23	1.66	2.11	2.38	1.8	1.11	3.16	–
O=[N+]([O-])c1ccc(Cl)c2c([N+](=O)[O-])cccc12	> 10	> 10	–	> 10	–	–	–	–	> 10	–	–	> 10	7.48	–	–	–	–	–	–	–
